Data as given in patent publication US11851409B2, “Deuterated benzylaminopyrimidinedione derivatives and use thereof” (QINGDAO JI'AO PHARMACEUTICAL TECHNOLOGY CO., LTD, priority 2019, dated 2023).

Assay: Pharmacokinetic test in SD rats
Format: in vivo
Conditions: male, plasma, rat, iv, 1 mg/kg; for Vd: read-out: Vss
Protocol: Experimental animals: 4 healthy adult male SD rats (purchased from Hunan SJA Laboratory Animal Co., Ltd) were divided into two groups, […].
Drug preparation: a certain amount of the compound of the present disclosure or MYK461 is weighted, and 10% DMSO, 10% Kolliphor HS15 and 80% saline are added to prepare the compound solution with target concentration.
Administration and sample collection: the animals fasted for 12 h before administration, ate in 3 h after administration, and were administered by intravenous administration (IV, 1 mg/kg) through the posterior limb vein of SD rats and orally intragastric administration (PO, 5 mg/kg), respectively. Then, blood samples were collected from the tail vein of rats at time points of 0, 0.083, 0.25, 0.5, 1, 2, 4, 6, 8, and 24 h, respectively, and the blood volume was about 200-400 μL/time point. After collecting whole blood at each time point, the blood samples were placed in K2EDTA anticoagulant test tubes, which were placed in an incubator with ice packs for preservation. All the samples were centrifuged at 4600 r/min at 4° C. for 5 min within 15 min to obtain plasma. The concentrations of different compounds in rat plasma after administration were determined by LC/MS/MS method. Pharmacokinetic parameters were calculated according to the drug concentration-time curve.

Work on `[2H]c1c([2H])c([2H])c([C@H](C)Nc2cc(=O)n(C(C)C)c(=O)[nH]2)c([2H])c1[2H]` [Example 1, (S)-3-isopropyl-6-((1-(phenyl-d5)ethyl)amino)pyrimidine-2,4(1H,3H)-dione] yielded an AUC(0-inf) of 6830 ng·h/mL, an AUC(0-t) of 3670 ng·h/mL and a Cmax of 883 ng/mL. For the same compound, the MRT inf was 31.1 h, the Tmax was 4.98 min and the clearance was 2.44 mL/min/kg. It also gave a half-life of 22.6 h and a Vd of 4.56 L/kg.
`[2H]c1ccc([C@H](C)Nc2cc(=O)n(C(C)C)c(=O)[nH]2)cc1` [Example 2, (S)-3-isopropyl-6-((1-(phenyl-4-d)ethyl)amino)pyrimidine-2,4(1H,3H)-dione] showed an AUC(0-inf) of 4670 ng·h/mL, an AUC(0-t) of 3290 ng·h/mL and a Cmax of 643 ng/mL. It also gave an MRT inf of 18.8 h, a Tmax of 4.98 min and a clearance of 3.57 mL/min/kg. For the same compound, the half-life was 13.9 h and the Vd was 4.03 L/kg.
In the case of `[2H]C([2H])([2H])C(n1c(=O)cc(N[C@@H](C)c2ccccc2)[nH]c1=O)C([2H])([2H])[2H]` [Example 5, (S)-6-((1-phenylethyl)amino)-3-(propane-2-yl-1,1,1,3,3,3-d6)pyrimidine-2,4 (1H,3H)-dione], the AUC(0-inf) is reported as 5690 ng·h/mL, the AUC(0-t) is reported as 4450 ng·h/mL and the Cmax is reported as 982 ng/mL. It also gave an MRT inf of 14.8 h, a Tmax of 4.98 min and a clearance of 2.93 mL/min/kg. It also gave a half-life of 11.3 h and a Vd of 2.6 L/kg.
With `CC(C)n1c(=O)cc(N[C@@H](C)c2ccccc2)[nH]c1=O` [MYK461, reference compound] the AUC(0-inf) was 3090 ng·h/mL, the AUC(0-t) was 2420 ng·h/mL and the Cmax was 393 ng/mL. For the same compound, the MRT inf was 15.1 h, the Tmax was 4.98 min and the clearance was 5.39 mL/min/kg. The half-life was 11.6 h and the Vd was 4.87 L/kg.
